Source: ChEMBL document CHEMBL1201862, “PubChem BioAssay data set” (2004)
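Five concentrations, 48 hours, 96-well plates. GI50 marks 50% less growth.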 Activity calls are given as the source filed them. Rule as the data show it: active = GI50 up to about 1.1 µM and inactive = higher.

Key:
Assay in all cases: DTP human tumour cell line panel, 48 h
HOP-18 = system: HOP-18
DMS-273 = system: DMS-273
M19-MEL = system: M19-MEL
DLD-1 = system: DLD-1
RXF 631 = system: RXF 631
LXFL 529 = system: LXFL 529
DMS-114 = system: DMS-114
SNB-78 = system: SNB-78
XF498 = system: XF498

Structure (SMILES) | GI50 (HOP-18) | GI50 (DMS-273) | GI50 (M19-MEL) | GI50 (DLD-1) | GI50 (RXF 631) | GI50 (LXFL 529) | GI50 (DMS-114) | GI50 (SNB-78) | GI50 (XF498)
O=C1Nc2cc(Cl)ccc2N=CC1NC(=O)C(c1ccccc1)c1ccccc1Cl (configuration not stated) | 27.5 µM (inactive) | > 100 µM (inactive) | > 100 µM (inactive) | > 100 µM (inactive) | > 100 µM (inactive) | > 100 µM (inactive) | > 100 µM (inactive) | > 100 µM (inactive) | –
O=C(CO[N+](=O)[O-])OCC(=O)c1ccccc1 | – | > 100 µM (inactive) | > 100 µM (inactive) | > 100 µM (inactive) | > 100 µM (inactive) | > 100 µM (inactive) | – | – | –
Cc1cc(NC(=O)NC(=O)c2ccccc2NC(=O)CN)ccc1Oc1ncc(Br)cn1 | – | 0.313 µM (active) | – | 1.4 µM (inactive) | – | 1.73 µM (inactive) | 0.191 µM (active) | – | 13.9 µM (inactive)
CCOc1ccc(NC(=O)/C(Cc2nc3ccccc3nc2O)=N\O)cc1 | – | > 100 µM (inactive) | > 100 µM (inactive) | > 100 µM (inactive) | – | > 100 µM (inactive) | > 100 µM (inactive) | > 100 µM (inactive) | –
COc1cccc(-c2cc(C(=O)Nc3ccc(Cl)cc3)nc(N)n2)c1 | > 100 µM (inactive) | 85.7 µM (inactive) | 45.7 µM (inactive) | 69.5 µM (inactive) | – | 52.7 µM (inactive) | 30.6 µM (inactive) | > 100 µM (inactive) | 93.8 µM (inactive)
COC(=O)c1c/c(=N\NC(=O)CC(=O)Nc2ccc(C)cc2)c2ccccc2o1 | > 100 µM (inactive) | > 100 µM (inactive) | > 100 µM (inactive) | > 100 µM (inactive) | – | > 100 µM (inactive) | > 100 µM (inactive) | > 100 µM (inactive) | > 100 µM (inactive)
CCNC(=O)C#CC(=O)NCC | > 100 µM (inactive) | 17.8 µM (inactive) | > 100 µM (inactive) | > 46.1 µM (inactive) | > 100 µM (inactive) | > 93.8 µM (inactive) | > 72.3 µM (inactive) | > 10 µM (inactive) | > 100 µM (inactive)
Cn1c(=O)c2[nH]cnc2n(CC(N)=O)c1=O | – | > 100 µM (inactive) | > 100 µM (inactive) | > 100 µM (inactive) | – | > 100 µM (inactive) | > 100 µM (inactive) | > 100 µM (inactive) | > 100 µM (inactive)
C=Cc1cc(OC)c2c(c1)c(=O)oc1c2cc(OC)c2c(O)ccc(C3OC(C)C(O)C(C)(O)C3O)c21 (configuration not stated) | 0.053 µM (active) | 0.0545 µM (active) | 0.0614 µM (active) | 0.0671 µM (active) | – | – | 0.0225 µM (active) | – | 0.0252 µM (active)
Nn1c(S)nnc1NNC(=O)C(=O)Nc1cc(Cl)c(Cl)cc1Cl | 71.1 µM (inactive) | – | > 100 µM (inactive) | > 100 µM (inactive) | – | > 100 µM (inactive) | > 100 µM (inactive) | > 100 µM (inactive) | 90.4 µM (inactive)
C[C@]12CCC(=O)C=C1CC[C@@H]1[C@@H]2CC[C@]2(C)C(=O)NC(=O)C[C@@H]12 | > 100 µM (inactive) | > 100 µM (inactive) | > 100 µM (inactive) | > 100 µM (inactive) | > 100 µM (inactive) | > 100 µM (inactive) | > 100 µM (inactive) | > 100 µM (inactive) | > 100 µM (inactive)
CCN(CC)CC(C(=O)Nc1c(C)cccc1C)/C(C)=N\NC(=O)C[N+](C)(C)C (configuration not stated) | – | > 100 µM (inactive) | > 100 µM (inactive) | > 100 µM (inactive) | – | > 100 µM (inactive) | > 100 µM (inactive) | > 100 µM (inactive) | > 100 µM (inactive)
COc1ccc(-c2cc(-c3ccccc3)c(C#N)c(=O)[nH]2)cc1 | > 100 µM (inactive) | > 100 µM (inactive) | > 100 µM (inactive) | > 100 µM (inactive) | > 100 µM (inactive) | > 100 µM (inactive) | > 100 µM (inactive) | > 100 µM (inactive) | –
CC(C)C(Nc1c2ccccc2[n+]([O-])c2ccccc12)C(=O)O (configuration not stated) | 19.4 µM (inactive) | 61.9 µM (inactive) | 88.5 µM (inactive) | 37.7 µM (inactive) | > 100 µM (inactive) | 32.4 µM (inactive) | 36.2 µM (inactive) | > 100 µM (inactive) | –
O=c1n(CC2CO2)c(=O)n(CC2CO2)c(=O)n1CC1CO1 (configuration not stated) [TEROXIRONE] | 91.8 µM (inactive) | 1.16 µM (inactive) | 53.7 µM (inactive) | 62.1 µM (inactive) | – | – | 11.4 µM (inactive) | 110 µM (inactive) | –
COC(=O)c1ccc(OCc2ccc3oc(=O)c(-c4ccccc4)nc3c2)cc1 | > 100 µM (inactive) | > 100 µM (inactive) | > 100 µM (inactive) | 15.2 µM (inactive) | – | – | > 100 µM (inactive) | > 100 µM (inactive) | 84.3 µM (inactive)
COc1ccc2c(CCNS(=O)(=O)c3ccccc3)c(C(C)=O)[nH]c2c1[N+](=O)[O-] | – | > 100 µM (inactive) | – | – | 41.4 µM (inactive) | > 100 µM (inactive) | – | 48.5 µM (inactive) | –
COC1/C=C/OC2(C)Oc3c(C)c(O)c4c(c3C2=O)C(=O)C=C(NC(=O)/C(C)=C\C=C\C(C)C(OC=O)C(C)C(O)C(C)C(OC(C)=O)C1C)C4=O (configuration not stated) | 5.36 µM (inactive) | 16.9 µM (inactive) | 13.1 µM (inactive) | 9.89 µM (inactive) | 15.7 µM (inactive) | 6.5 µM (inactive) | 16.8 µM (inactive) | 20.1 µM (inactive) | 4 µM (inactive)
N/N=C(\CC1OC(=O)c2ccccc21)c1ccco1 (configuration not stated) | < 0.01 µM (active) | > 100 µM (inactive) | > 100 µM (inactive) | > 100 µM (inactive) | – | > 100 µM (inactive) | > 100 µM (inactive) | – | –
CC(C)(C)c1cc(Oc2ccc(C#N)c(C#N)c2)cc(C(C)(C)C)c1 | > 100 µM (inactive) | 14.1 µM (inactive) | > 100 µM (inactive) | > 100 µM (inactive) | 31 µM (inactive) | > 100 µM (inactive) | 42.1 µM (inactive) | > 100 µM (inactive) | > 100 µM (inactive)
O=C(CC(=O)Nc1cccc(Cl)c1)NNCC(=O)Nc1nnc(-c2ccccc2)s1 | 3.62 µM (inactive) | 38.4 µM (inactive) | > 100 µM (inactive) | 58.6 µM (inactive) | > 100 µM (inactive) | 41.3 µM (inactive) | 24.4 µM (inactive) | 97.9 µM (inactive) | 17.7 µM (inactive)
CN1CCN(CCNc2ccc(CO)c3sc4ccccc4c(=O)c23)CC1 | – | 3.21 µM (inactive) | 12.2 µM (inactive) | 11.7 µM (inactive) | – | 9.71 µM (inactive) | 9.57 µM (inactive) | – | –
Clc1ccc(-n2nnc(C3=NCCCN3)c2-c2ccccc2)cc1 | > 100 µM (inactive) | > 100 µM (inactive) | > 100 µM (inactive) | > 100 µM (inactive) | – | > 100 µM (inactive) | > 100 µM (inactive) | > 100 µM (inactive) | > 100 µM (inactive)
Cc1cc(=O)oc2cc(OCc3nc4ccccc4c(=O)n3-c3ccccc3)ccc12 | > 100 µM (inactive) | > 100 µM (inactive) | > 100 µM (inactive) | > 100 µM (inactive) | > 100 µM (inactive) | > 100 µM (inactive) | > 100 µM (inactive) | – | –
CCOC(=O)C(=Cc1ccc(C(=O)OC)cc1)C(=O)OCC | 3.49 µM (inactive) | 1.71 µM (inactive) | 2.75 µM (inactive) | 2.12 µM (inactive) | – | 1.75 µM (inactive) | 1.66 µM (inactive) | – | –
